Some test systems named below: IGROV-1; EKVX; OVCAR-4; CAKI-1; HT-29; HCT-116; SF-539; MDA-MB-231; COLO 205; A549; SK-OV-3; SF-295; SK-MEL-2; HCT-15; SK-MEL-28; HL-60; RXF 393; DU-145; 786-0; SN12C.
Holding throughout (assay): inhibition of tumour cell growth, NCI panel, 48 h

SMILES strings stand for the structures.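 Assay format: 96-well plates, 48-hour exposure. GI50: concentration for 50% inhibition of growth.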 Activity calls are given as the source filed them. Cut-off read from the data, not from the text of the source: active = GI50 up to about 1.1 µM and inactive = higher.

As to `O=C1Nc2ccccc2/C1=N/NC(=S)Nc1cccc(Cl)c1`, the GI50 in the assay on IGROV-1 was 17.2 µM (inactive); in the assay on EKVX, 10.3 µM (inactive); in the assay with OVCAR-4 it was 4.33 µM (inactive); in the assay with CAKI-1, 8.3 µM (inactive); in the assay with HT-29 it was 10.1 µM (inactive); in the assay with HCT-116 it was 3.49 µM (inactive). For the same compound, the GI50 was 7 µM (inactive) with SF-539; 11.1 µM (inactive) in the assay with MDA-MB-231; 8.93 µM (inactive) with COLO 205; 7.08 µM (inactive) with A549; 20.7 µM (inactive) with SK-OV-3; 4.81 µM (inactive) with SF-295. Moreover, the GI50 in the assay on SK-MEL-2 is 22 µM (inactive); in the assay with HCT-15, 7.64 µM; with SK-MEL-28 it was 35.2 µM (inactive); in the assay with HL-60, 8.87 µM (inactive); with RXF 393, 7.6 µM (inactive); in the assay with DU-145, 22.5 µM (inactive). For the same compound, the GI50 with 786-0 was 5.12 µM (inactive); in the assay on SN12C it was 14.4 µM (inactive).
Consider `Cc1cc(Cl)nc(Nc2nc3ccccc3[nH]2)n1`, for which the GI50 in the assay on IGROV-1, with OVCAR-4, in the assay with HT-29, in the assay with HCT-116, in the assay on SF-539 and with MDA-MB-231 was > 100 µM (inactive) each time. Besides, the GI50 with COLO 205 is > 100 µM (inactive); with A549 it was > 100 µM (inactive); in the assay with SK-OV-3 it was > 100 µM (inactive); in the assay with SF-295, > 100 µM (inactive); with SK-MEL-2, > 100 µM (inactive); in the assay on HCT-15 it was greater than 100 µM. Moreover, the GI50 in the assay with SK-MEL-28, with HL-60, with RXF 393, in the assay on DU-145, in the assay with 786-0 and in the assay on SN12C was > 100 µM (inactive) throughout.
Regarding `O=C1N/N=C\c2ccc(cc2)OCc2cccc(n2)COc2ccc(cc2)/C=N\NC1=O`, the GI50 in the assay on IGROV-1, in the assay with EKVX, with OVCAR-4, in the assay with HT-29, with HCT-116 and with SF-539 was > 25 µM (inactive) each time. The GI50 in the assay with MDA-MB-231, in the assay with COLO 205, with A549, in the assay with SK-OV-3, in the assay on SF-295 and with SK-MEL-2 was > 25 µM (inactive) in each case. Further, the GI50 in the assay on HCT-15 is greater than 25 µM; in the assay with SK-MEL-28, > 25 µM (inactive); in the assay with HL-60, > 25 µM (inactive); in the assay with RXF 393, > 25 µM (inactive); in the assay on DU-145 it was > 25 µM (inactive); with 786-0 it was > 25 µM (inactive). Also, the GI50 in the assay with SN12C is > 25 µM (inactive).
For `CC1=CC(=O)/C(=C/n2c(=S)[nH]c3ccc([N+](=O)[O-])cc32)C(=O)O1`, the GI50 in the assay on IGROV-1 is > 100 µM (inactive); with EKVX, > 50.1 µM (inactive); in the assay with OVCAR-4, > 100 µM (inactive); in the assay with HT-29, > 100 µM (inactive); in the assay with HCT-116, > 100 µM (inactive); in the assay on SF-539 it was > 100 µM (inactive). For the same compound, the GI50 in the assay with MDA-MB-231, in the assay with COLO 205, in the assay with A549, in the assay with SK-OV-3, in the assay on SF-295 and with SK-MEL-2 was > 100 µM (inactive) in each case. Also, the GI50 is greater than 100 µM in the assay on HCT-15; > 100 µM (inactive) in the assay with SK-MEL-28; 2.09 µM (inactive) in the assay with HL-60; > 100 µM (inactive) in the assay on RXF 393; > 100 µM (inactive) in the assay with DU-145; > 100 µM (inactive) with 786-0. For the same compound, the GI50 in the assay with SN12C is > 100 µM (inactive).
In the case of `O=C1c2ccccc2C(=O)c2c1ccc1c3ccccc3n(-c3ccccc3)c21`, the GI50 in the assay on IGROV-1 is 25.4 µM (inactive); in the assay with EKVX, 41.3 µM (inactive); in the assay with OVCAR-4, 18.8 µM (inactive); in the assay on CAKI-1, 18.2 µM (inactive); in the assay on HT-29 it was 16.7 µM (inactive); in the assay with HCT-116, 19.7 µM (inactive). Also, the GI50 was 19.1 µM (inactive) with SF-539; 22.4 µM (inactive) in the assay on MDA-MB-231; 16.9 µM (inactive) in the assay on COLO 205; 27.7 µM (inactive) in the assay with A549; > 100 µM (inactive) with SK-OV-3; 18.2 µM (inactive) in the assay on SF-295. Besides, the GI50 in the assay on SK-MEL-2 is 25.7 µM (inactive); in the assay on HCT-15 it was 16.1 µM; with SK-MEL-28, 17.9 µM (inactive); in the assay with HL-60 it was 2.03 µM (inactive); with RXF 393 it was 14.1 µM (inactive); in the assay with DU-145, 18.7 µM (inactive). The GI50 was 21.3 µM (inactive) in the assay with 786-0 and 17.8 µM (inactive) in the assay with SN12C.
Regarding `CCN(CC)C(=O)Cn1c(-c2ccccc2)cc2ccccc21`, the GI50 in the assay with IGROV-1 is 60.8 µM (inactive); in the assay on EKVX, 16.6 µM (inactive); in the assay with OVCAR-4, 66.8 µM (inactive); with HT-29, 29 µM (inactive); in the assay on HCT-116 it was 24.8 µM (inactive); in the assay on SF-539 it was 34.4 µM (inactive). Besides, the GI50 with MDA-MB-231 was 37.5 µM (inactive); in the assay on COLO 205, 16.6 µM (inactive); with A549, 33 µM (inactive); in the assay on SK-OV-3, 40.8 µM (inactive); with SK-MEL-2, 72.8 µM (inactive); in the assay on HCT-15 it was 43.3 µM. The GI50 with SK-MEL-28 is 52.6 µM (inactive); in the assay on HL-60 it was 47.4 µM (inactive); in the assay on RXF 393, 22.9 µM (inactive); with DU-145, 56 µM (inactive); with 786-0 it was 45.1 µM (inactive); in the assay with SN12C it was 97.3 µM (inactive).
Take `O=c1[nH]cc(/N=C/c2cc(Cl)cc(Cl)c2O)c(=O)[nH]1`: the GI50 was 17 µM (inactive) in the assay on IGROV-1; 30.7 µM (inactive) in the assay on EKVX; 21.3 µM (inactive) with OVCAR-4; 24.6 µM (inactive) in the assay with CAKI-1; 26.5 µM (inactive) with HT-29; 20.6 µM (inactive) in the assay on HCT-116. Further, the GI50 is 24.1 µM (inactive) with SF-539; 48.3 µM (inactive) in the assay on MDA-MB-231; 24.8 µM (inactive) in the assay on COLO 205; > 100 µM (inactive) in the assay with A549; 24.7 µM (inactive) in the assay with SK-OV-3; 47.3 µM (inactive) in the assay with SF-295. Further, the GI50 with SK-MEL-2 was 19.3 µM (inactive); in the assay with HCT-15, 36.4 µM; with SK-MEL-28, 22.9 µM (inactive); in the assay with HL-60 it was 13.6 µM (inactive); in the assay with RXF 393, 26.2 µM (inactive); in the assay with DU-145, 23 µM (inactive). Moreover, the GI50 in the assay with 786-0 is 20.7 µM (inactive); in the assay on SN12C, 35.2 µM (inactive).
As for `CC(=O)c1ccc(Nc2c3ccccc3nc3occc23)cc1`, the GI50 with IGROV-1 is < 0.01 µM (active); in the assay with OVCAR-4, < 0.0246 µM (active); in the assay on CAKI-1, < 0.01 µM (active); with HT-29 it was < 0.01 µM (active); in the assay on HCT-116, < 0.01 µM (active); with SF-539, < 0.01 µM (active). The GI50 in the assay on MDA-MB-231 was 0.0194 µM (active); with COLO 205, < 0.01 µM (active); with A549, 0.124 µM (active); in the assay with SK-OV-3, 0.0402 µM (active); in the assay on SF-295, < 0.01 µM (active); with SK-MEL-2 it was 0.0108 µM (active). Further, the GI50 with HCT-15 was less than 0.01 µM; with SK-MEL-28, 0.643 µM (active); with HL-60, < 0.01 µM (active); with RXF 393, < 0.01 µM (active); in the assay with DU-145, 0.0213 µM (active); in the assay with 786-0, < 0.01 µM (active). Also, the GI50 in the assay with SN12C is 0.0172 µM (active).
On to `CN(C)CCNC(=O)c1cccc2nc3c(nc12)-c1ccccc1C3=O`, for which the GI50 in the assay with IGROV-1 was 20.9 µM (inactive); with EKVX, 22.8 µM (inactive); with OVCAR-4 it was 20.8 µM (inactive); in the assay with CAKI-1, 13.6 µM (inactive); in the assay with HT-29 it was 6.76 µM (inactive); in the assay with HCT-116, 12.7 µM (inactive). The GI50 with SF-539 is 10.2 µM (inactive); in the assay with MDA-MB-231, 7.89 µM (inactive); in the assay on COLO 205, 17.6 µM (inactive); with A549 it was 12.5 µM (inactive); in the assay with SK-OV-3, 26.7 µM (inactive); with SF-295, 17.9 µM (inactive). For the same compound, the GI50 with SK-MEL-2 was 17 µM (inactive); in the assay with HCT-15, 10.3 µM; in the assay on SK-MEL-28 it was 16 µM (inactive); in the assay on HL-60 it was 6.3 µM (inactive); with RXF 393 it was 16.8 µM (inactive); in the assay with DU-145 it was 29.9 µM (inactive). Further, the GI50 in the assay with 786-0 was 8.11 µM (inactive); in the assay on SN12C, 11 µM (inactive).
On to `CCO[C@H]1O[C@@H]2OC3(C)CCC4[C@H](C)CCC([C@H]1C)[C@]42OO3` (stereo partly drawn), for which the GI50 is > 73.8 µM (inactive) with IGROV-1; > 49.1 µM (inactive) with EKVX; 25.8 µM (inactive) in the assay with OVCAR-4; > 100 µM (inactive) in the assay on CAKI-1; 61.2 µM (inactive) in the assay with HT-29; 35.2 µM (inactive) in the assay on HCT-116. Also, the GI50 is > 84.7 µM (inactive) with SF-539; > 57 µM (inactive) with MDA-MB-231; 2.98 µM (inactive) with COLO 205; 40.8 µM (inactive) in the assay with A549; > 100 µM (inactive) in the assay on SK-OV-3; > 20.2 µM (inactive) in the assay on SF-295. For the same compound, the GI50 with SK-MEL-2 was > 100 µM (inactive); with HCT-15, 23.9 µM; in the assay on SK-MEL-28 it was > 75.5 µM (inactive); in the assay with HL-60, 0.159 µM (active); in the assay with RXF 393, > 100 µM (inactive); in the assay with DU-145, > 100 µM (inactive). Also, the GI50 in the assay on 786-0 is 57.5 µM (inactive); in the assay with SN12C, 68.2 µM (inactive).

These data come from ChEMBL document CHEMBL1201862, “PubChem BioAssay data set” (2004).
